ChEMBL document CHEMBL1129873, “PYRIDONE-BASED PEPTIDOMIMETIC INHIBITORS OF INTERLEUKIN-1-CONVERTING ENZYME (ICE)” (Bioorg Med Chem Lett, 1997)

Target: T1, Caspase-1 (Homo sapiens, UniProt P29466)
T1 sequence (P29466 whole entry): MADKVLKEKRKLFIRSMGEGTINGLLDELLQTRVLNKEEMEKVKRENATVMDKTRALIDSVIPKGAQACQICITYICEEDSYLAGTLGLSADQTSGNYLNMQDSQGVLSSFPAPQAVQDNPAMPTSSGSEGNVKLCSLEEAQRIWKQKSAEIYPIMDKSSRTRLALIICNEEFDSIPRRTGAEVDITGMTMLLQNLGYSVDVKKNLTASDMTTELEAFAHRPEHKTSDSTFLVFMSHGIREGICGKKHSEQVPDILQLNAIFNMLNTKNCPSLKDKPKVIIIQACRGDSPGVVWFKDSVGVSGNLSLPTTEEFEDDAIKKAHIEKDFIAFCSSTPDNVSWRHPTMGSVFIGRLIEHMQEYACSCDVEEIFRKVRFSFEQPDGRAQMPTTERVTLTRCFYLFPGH
Assay: Reversible inhibition of recombinant human IL-1 beta converting enzyme.

| SMILES | Ki [nM] |
| --- | --- |
| CCCCC(C(=O)N[C@@H](CC(=O)O)C(=O)COc1ccccc1)n1cccc(NC(=O)c2cccc3ccccc23)c1=O (some centres not stated) | 5.3 |
| CC(C(=O)N[C@@H](CC(=O)O)C(=O)COc1ccccc1)n1cccc(NC(=O)c2ccc3ccccc3c2)c1=O (some centres not stated) | 14 |
| COCC(C(=O)N[C@@H](CC(=O)O)C(=O)COc1ccccc1)n1cccc(NC(=O)c2ccc3ccccc3c2)c1=O (some centres not stated) | 7.1 |
| CC(C(=O)N[C@@H](CC(=O)O)C(=O)COc1ccccc1)n1cccc(NC(=O)c2cccc3ccccc23)c1=O (some centres not stated) | 7 |
| Cc1ccc(NC(=O)c2ccccc2)c(=O)n1CC(=O)N[C@@H](CC(=O)O)C(=O)COc1ccccc1 | 530 |
| CCCC(C(=O)N[C@@H](CC(=O)O)C(=O)COc1ccccc1)n1c(C)ccc(NC(=O)c2ccc3ccccc3c2)c1=O (some centres not stated) | 2200 |
| O=C(O)C[C@H](NC(=O)Cn1cccc(NC(=O)c2ccc3ccccc3c2)c1=O)C(=O)COc1ccccc1 | 45 |
| Cc1ccc(NC(=O)c2cccc3ccccc23)c(=O)n1CC(=O)N[C@@H](CC(=O)O)C(=O)COc1ccccc1 | 95 |
| CC(C)[C@H](NC(=O)c1ccc2ccccc2c1)C(=O)N1CCCC[C@H]1C(=O)NC(CC(=O)O)C(=O)COc1ccccc1 (some centres not stated) | 0.15 |
| C=CCC(C(=O)N[C@@H](CC(=O)O)C(=O)COc1ccccc1)n1cccc(NC(=O)c2ccc3ccccc3c2)c1=O (some centres not stated) | 1.5 |
| CC(C)[C@H](NC(=O)c1ccc2ccccc2c1)C(=O)N[C@@H](C)C(=O)NC(CC(=O)O)C(=O)COc1ccccc1 (some centres not stated) | 0.15 |
| O=C(O)C[C@H](NC(=O)Cn1c(-c2ccccc2)ccc(NC(=O)c2cccc3ccccc23)c1=O)C(=O)COc1ccccc1 | 25 |
| CC(C)C(C(=O)N[C@@H](CC(=O)O)C(=O)COc1ccccc1)n1cccc(NC(=O)c2cccc3ccccc23)c1=O (some centres not stated) | 21 |
| CCCc1ccc(NC(=O)c2cccc3ccccc23)c(=O)n1CC(=O)N[C@@H](CC(=O)O)C(=O)COc1ccccc1 | 68 |
| CCCC(C(=O)N[C@@H](CC(=O)O)C(=O)COc1ccccc1)n1c(-c2ccccc2)ccc(NC(=O)c2cccc3ccccc23)c1=O (some centres not stated) | 7200 |
| O=C(O)C[C@H](NC(=O)Cn1c(Cc2ccccc2)ccc(NC(=O)c2cccc3ccccc23)c1=O)C(=O)COc1ccccc1 | 10 |

| SMILES | Ki [nM] |
| --- | --- |
| CCC(C(=O)N[C@@H](CC(=O)O)C(=O)COc1ccccc1)n1cccc(NC(=O)c2ccc3ccccc3c2)c1=O (some centres not stated) | 1.4 |
| CCCC(C(=O)N[C@@H](CC(=O)O)C(=O)COc1ccccc1)n1cccc(NC(=O)c2cccc3ccccc23)c1=O (some centres not stated) | 1.8 |
| CCCCCCc1ccc(NC(=O)c2cccc3ccccc23)c(=O)n1CC(=O)N[C@@H](CC(=O)O)C(=O)COc1ccccc1 | 40 |
| O=C(O)C[C@H](NC(=O)C(c1ccccc1)n1cccc(NC(=O)c2ccc3ccccc3c2)c1=O)C(=O)COc1ccccc1 (some centres not stated) | 1.3 |
| CC(=O)N[C@@H](Cc1ccc(O)cc1)C(=O)N[C@H](C(=O)N[C@@H](C)C(=O)N[C@@H](CC(=O)O)C(=O)COc1ccccc1)C(C)C | 1.1 |
| O=C(O)C[C@H](NC(=O)Cn1cccc(NC(=O)c2cccc3ccccc23)c1=O)C(=O)COc1ccccc1 | 39 |
| CCc1ccc(NC(=O)c2cccc3ccccc23)c(=O)n1CC(=O)N[C@@H](CC(=O)O)C(=O)COc1ccccc1 | 40 |
| O=C(O)C[C@H](NC(=O)Cn1c(-c2ccccc2)ncc(NC(=O)c2cccc3ccccc23)c1=O)C(=O)COc1ccccc1 | 66 |
| CCC(C(=O)N[C@@H](CC(=O)O)C(=O)COc1ccccc1)n1cccc(NC(=O)c2cccc3ccccc23)c1=O (some centres not stated) | 2.2 |
| CCCCc1ccc(NC(=O)c2cccc3ccccc23)c(=O)n1CC(=O)N[C@@H](CC(=O)O)C(=O)COc1ccccc1 | 16 |
| Cc1ccc(NC(=O)c2ccc3ccccc3c2)c(=O)n1CC(=O)N[C@@H](CC(=O)O)C(=O)COc1ccccc1 | 160 |
| CC(C)[C@H](NC(=O)c1ccc2ccccc2c1)C(=O)N1CCC[C@H]1C(=O)NC(CC(=O)O)C(=O)COc1ccccc1 (some centres not stated) | 0.2 |
| O=C(O)C[C@H](NC(=O)C(c1ccccn1)n1cccc(NC(=O)c2ccc3ccccc3c2)c1=O)C(=O)COc1ccccc1 (some centres not stated) | 2 |
| O=C(O)C[C@H](NC(=O)C(c1ccccc1)n1cccc(NC(=O)c2cccc3ccccc23)c1=O)C(=O)COc1ccccc1 (some centres not stated) | 1.8 |
| Cc1ccc(NC(=O)OCc2ccccc2)c(=O)n1CC(=O)N[C@@H](CC(=O)O)C(=O)COc1ccccc1 | 590 |
| CCCCc1ncc(NC(=O)c2cccc3ccccc23)c(=O)n1CC(=O)N[C@@H](CC(=O)O)C(=O)COc1ccccc1 | 46 |
